Series [1] concerns influenza virus A/Puerto Rico/8/34 (H1N1). The series is described as follows: organism not typed. Format: cell-based. The note with it: for SI (selectivity index, SI=CC50/IC50): CC50 in MDCK cells / IC50 against influenza A/Puerto Rico/8/34 (H1N1); for IC50: MDCK cells, influenza A/Puerto Rico/8/34 (H1N1), 48 hours, read-out: IC50 (compound concentration, at which 50% of virus titer is inhibited).

A short description of series [2]: Assessment of cytotoxic properties (MTS assay, 48 h). The note with it: dog, MDCK ECAAC cells, read-out: CC50 (toxic dose of the drug, causing the death of 50% of the monolayer cells). Format: cell-based. As to the method:
Assessment of cytotoxic properties of asymmetric gossypol derivatives.
In 96-well flat-bottomed test plates, MDCK ECAAC (Sigma cat. ? 85011435) cells are placed at 18,000 cells per well in a volume of 100 μl of complete medium containing 10% fetal calf serum (FCS). Cells are cultured for 24 hours in CO2-incubator at 37° C. Then the liquid medium is removed from the wells of the test plates, leaving the immobilized living cells. Then wells are once washed with the 100 μl of serumless media. The medium is replaced with 100 μl per well of the dilutions of test compounds in support medium with 2% of serum, in 4 replicates. Each plate is prepared with 6 control wells containing 100 μl of fresh support medium without test compounds. The plates are incubated in CO2-incubator at 37° C. for 48 hours. Then liquid contents are removed from the wells, and 100 μl of support medium and 20 μl of MTS (Promega, cat. ? G3581) are added and mixed. The cells are incubated for 3 hours in CO2-incubator at 37° C., and the relative optical density of the solution in each well is measured with a plate spectrophotometer at 492 nm against its absorption at a reference wavelength of 620 nm. The cytotoxicity (CC50) is calculated using the standard method.

Each structure is given as a SMILES string. Converted amounts (≈) assume the structure as drawn.

As for `Cc1cc2c(C(C)C)c(O)c(O)cc2c(O)c1-c1c(C)cc2c(C(C)C)c(O)c(O)c(C=O)c2c1O` (racemic) [I, 1,1′,6,6′,7,7′-hexahydroxy-5,5′-diisopropyl-3,3′-dimethyl-2,2′-binaphthalene-8-carbaldehyde], in series [1], the “SI (selectivity index, SI=CC50/IC50)” value is 29,36 and the IC50 is 0.2 µg/mL (≈ 0.408 µM). Also, the CC50 at 48 h in series [2] came to 5.5 µg/mL (≈ 11.2 µM).

`Cc1cc2c(C(C)C)c(O)c(O)c(C=O)c2c(O)c1-c1c(C)cc2c(C(C)C)c(O)c(O)c(C=O)c2c1O` [Gossypol, gossypol, reference compound]: in series [1], the “SI (selectivity index, SI=CC50/IC50)” value is recorded as 3,24 and the IC50 turned out to be 1.2 µg/mL (≈ 2.31 µM). Further, the CC50 at 48 h in series [2] was found to be 4 µg/mL (≈ 7.71 µM).

In the case of `CC1=C(C2=C(C)C(=O)c3c(c(C=O)c(O)c(O)c3C(C)C)C2=O)C(=O)c2cc(O)c(O)c(C(C)C)c2C1=O` [II, 6,6′,7,7′-tetrahydroxy-5,5′-diisopropyl-3,3′-dimethyl-1,1′,4,4′-tetraoxo-1,1′,4,4′-tetrahydro-2,2′-binaphthalene-8-carbaldehyde], in series [1], the “SI (selectivity index, SI=CC50/IC50)” value was 4,75 and the IC50 is 0.8 µg/mL (≈ 1.54 µM). Further, the half-maximal cytotoxic concentration (CC50) at 48 h in series [2] was 3.8 µg/mL (≈ 7.33 µM).

The term CC50 denotes the concentration giving 50% cytotoxicity.

For the origin of these results see patent US20200369618A1, “ASYMMETRIC DERIVATIVES OF P[…] THE DIN[…], PROCESS OF PREPARING AND USE THEREOF” (NEARMEDIC INTERNATIONAL LIMITED, priority 2017, published 2020).
